Results from paper PMC3894693 (Biochemical and biophysical research communications, 2013).

Tests used:
[1] = target: T1, Pyruvate carboxylase (RePC) (Rhizobium etli, UniProt Q2K340); assay: X-ray co-crystal structure; assay type: binding
[2] = target: T1, Pyruvate carboxylase (RePC); assay: ITC; assay type: binding

Kd [1] [mM] | Kd [2] [mM] | SMILES
0.13 | – | O=C(O)C(=O)O [oxalate]
– | ~2 | CC(=O)C(=O)O [pyruvate]
